Values after ≈ are worked out from the molar mass of the structure shown.
Legend:
RAW264.7 [1] = experiment: Antiinflammatory activity in mouse RAW264.7 cells assessed as inhibition of LPS-induced NO production preincubated for 0.5 hrs followed by LPS stimulation and measured after 24 hrs by Griess reagent based analysis; type: functional, cell-based
RAW264.7 [2] = experiment: Antiinflammatory activity in mouse RAW264.7 cells assessed as inhibition of IFN-gamma and LPS-induced NO production incubated for 24 hrs by Griess assay; type: functional, cell-based; conditions: RAW264.7, 24 h
RAW264.7 [3] = experiment: Antiinflammatory activity against mouse RAW264.7 cells assessed as inhibition of IFN-gamma and LPS-induced COX2 production preincubated for 2 hrs followed by IFN-gamma and LPS stimulation and measured after 16 hrs by spectrophotometric analysis; type: functional, cell-based
J774.A1 [4] = experiment: Antiinflammatory activity in mouse J774.A1 cells assessed as inhibition of LPS-induced TNF-alpha production at 10 microg/ml preincubated for 30 mins followed by LPS stimulation and measured after 2 hrs by Griess reagent based analysis; type: functional; conditions: J774.A1, 2.5 h, time 150 min
J774.A1 [5] = experiment: Antiinflammatory activity in mouse J774.A1 cells assessed as inhibition of LPS-induced IL-6 production at 10 microg/ml preincubated for 30 mins followed by LPS stimulation and measured after 2 hrs by Griess reagent based analysis; type: functional; conditions: J774.A1, 2.5 h, time 150 min
Mus musculus [6] = experiment: Antiinflammatory activity in TPA-induced ear edema ICR mouse model assessed as inhibition of ear inflammation at 1 ug, TOP for 30 mins followed by TPA addition and measured after 6 hrs; type: functional; conditions: dose 1 µg, time 390 min, 6.5 h
RAW264.7 [7] = experiment: Antiinflammatory activity in mouse RAW264.7 cells assessed as inhibition of LPS-induced NO production; type: functional, cell-based
RAW264.7 [8] = experiment: Antiinflammatory activity in mouse RAW264.7 cells assessed as inhibition of LPS-induced IL-1beta expression at 5 ug/ml; type: functional
RAW264.7 [9] = experiment: Antiinflammatory activity in mouse RAW264.7 cells assessed as inhibition of LPS-induced TNFalpha expression at 5 ug/ml; type: functional
RAW264.7 [10] = experiment: Antiinflammatory activity in mouse RAW264.7 cells assessed as inhibition of LPS-induced COX-2 expression at 5 ug/ml; type: functional
RAW264.7 [11] = experiment: Antiinflammatory activity in mouse RAW264.7 cells assessed as inhibition of LPS-induced NF-kappaB expression at 5 ug/ml; type: functional
RAW264.7 [12] = experiment: Antiinflammatory activity in mouse RAW264.7 cells assessed as inhibition of LPS-induced iNOS expression at 5 ug/ml; type: functional
Rattus norvegicus [13] = experiment: Antiinflammatory activity in Wistar rat model of carrageenan-induced paw edema assessed as reduction in paw thickness at 10 mg/kg,po and measured after 5 hrs; type: functional; parameters: scale not given: the % may be the effect or the level left
Rattus norvegicus [14] = experiment: Antiinflammatory activity against Freund's complete adjuvant-induced arthritic Wistar rat model assessed as reduction in TNF-alpha level at 5 mg/kg,po measured after 28 days by ELISA; type: functional; parameters: scale not given: the % may be the effect or the level left; conditions: time 28 day
Rattus norvegicus [15] = experiment: Antiinflammatory activity against Freund's complete adjuvant-induced arthritic Wistar rat model assessed as reduction in IL-1beta level at 5 mg/kg,po measured after 28 days by ELISA; type: functional; parameters: scale not given: the % may be the effect or the level left; conditions: time 28 day
Rattus norvegicus [16] = experiment: Antiinflammatory activity against Freund's complete adjuvant-induced arthritic Wistar rat model assessed as reduction in IL-6 level at 5 mg/kg,po measured after 28 days by ELISA; type: functional; parameters: scale not given: the % may be the effect or the level left; conditions: time 28 day
Rattus norvegicus [17] = experiment: Antiinflammatory activity against Freund's complete adjuvant-induced arthritic Wistar rat model assessed as reduction in paw volume at 5 mg/kg,po measured after 28 days; type: functional; parameters: scale not given: the % may be the effect or the level left; conditions: time 28 day
Rattus norvegicus [18] = experiment: Antiinflammatory activity in rat model of carrageenan-induced hind paw edema assessed as reduction in paw thickness at 100 mg/kg,ip 30mins before carrageenin exposure and measured after 3 hrs; type: functional; parameters: scale not given: the % may be the effect or the level left
Rattus norvegicus [19] = experiment: Antiinflammatory activity in rat model of ethyl phenylpropiolate-induced ear edema assessed as reduction in ear thickness administered topically and measured after 30 mins; type: functional; conditions: 0.5 h
Rattus norvegicus [20] = experiment: Antiinflammatory activity in rat model of ethyl phenylpropiolate-induced ear edema assessed as reduction in ear thickness administered topically and measured after 1 hr; type: functional
Mus musculus [21] = experiment: Antiinflammatory activity in ICR mouse model of thioacetamide-induced hepatotoxicity assessed as reduction in TNF-alpha expression at 1 mg/kg,ip pretreated with compound followed by TA induction and measured after 24 hrs by RT-PCR analysis; type: functional; parameters: scale not given: the % may be the effect or the level left
[22] = Antioxidant activity assessed as DPPH radical scavenging activity incubated for 30 mins by spectrophotometric analysis; type: functional
J774.A1 [23] = experiment: Antiinflammatory activity in mouse J774.A1 cells assessed as inhibition of LPS-induced NO production incubated for 24 hrs by Griess reagent based analysis; type: functional, cell-based; conditions: J774.A1, 24 h
[24] = Antioxidant activity assessed as DPPH radical scavenging activity; type: functional
[25] = Antioxidant activity assessed as hydroxyl radical scavenging activity; type: functional
[26] = Antioxidant activity assessed as ABTS radical scavenging activity measured after 6 mins; type: functional
J774.1 = experiment: Antiinflammatory activity in mouse J774.1 cells assessed as inhibition of LPS-induced NO production at 10 microg/ml incubated for 48 hrs by Griess reagent based analysis; type: functional

## O=C(CCc1ccc(O)c(O)c1)C[C@H](CCc1ccc(O)c(O)c1)O[C@@H]1O[C@H](CO)[C@@H](O)[C@H](O)[C@H]1O
RAW264.7 [1]
  IC50: 10 µM
RAW264.7 [2]
  IC50: 29.4 mg/L (≈ 57.8 µM)
RAW264.7 [3]
  IC50: 33.7 mg/L (≈ 66.3 µM)
J774.A1 [4]
  inhibition at 10 µg/mL: 51%
J774.A1 [5]
  inhibition at 10 µg/mL: 75%

## O=C(/C=C/CCc1ccc(O)cc1)CCc1ccccc1
Mus musculus [6]
  ID50: 0.8 µmol
RAW264.7 [7]
  IC50: 5 mg/L (≈ 17.8 µM)
RAW264.7 [8]
  inhibition at 5 µg/mL: 70%
RAW264.7 [9]
  inhibition at 5 µg/mL: 71%
RAW264.7 [10]
  inhibition at 5 µg/mL: 69%
RAW264.7 [11]
  inhibition at 5 µg/mL: 50%
RAW264.7 [12]
  inhibition at 5 µg/mL: 69%

## O=C(O)Cc1ccccc1Nc1c(Cl)cccc1Cl [DICLOFENAC]
Rattus norvegicus [13]
  Activity: 39.5%
Rattus norvegicus [14]
  Activity: 47%
Rattus norvegicus [15]
  Activity: 7%
Rattus norvegicus [16]
  Activity: 2.5%
Rattus norvegicus [17]
  Activity: 28.3%

## OC(/C=C/C=C/c1ccccc1)CCc1ccccc1 (configuration not stated)
Rattus norvegicus [18]
  Activity: 39%
Rattus norvegicus [19]
  ID50: 129 µg
Rattus norvegicus [20]
  ID50: 312 µg
Mus musculus [21]
  Activity: 53%

## O=C1O[C@H]([C@@H](O)CO)C(O)=C1O [ASCORBIC ACID]
[22]
  IC50: 24.8 µM
J774.A1 [23]
  IC50: > 100 µM
[24]
  IC50: 58 mg/L (≈ 329 µM)
[25]
  IC50: 47 mg/L (≈ 267 µM)
[26]
  IC50: 23.3 µM

## COc1cc(O)c([C@H]2C[C@H](CCc3ccc(O)cc3)O[C@@H](c3ccc(O)cc3)[C@H]2O)c(O)c1C(=O)/C=C/c1ccc(O)cc1
J774.1
  inhibition at 10 µg/mL: 37.6%

— ChEMBL document CHEMBL5233262, “Anti-inflammatory activity of naturally occuring diarylheptanoids - A review” (Bioorg Med Chem, 2021)
